According to PubChem BioAssay AID1195 (EPA DSSTox, 2008):

Test system: human maximum recommended daily dose, FDA database
Assay: DSSTox (FDAMDD) FDA Maximum (Recommended) Daily Dose Database
Settings: stronger effect = lower value
In short: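 MRDD values come from clinical trials with daily oral dosing, usually for 3–12 months, for the average adult, in mg/day converted to mg/kg-bw/day assuming 60 kg. Antineoplastic mg/m2 doses are divided by 37. Activity score maps log10(1/MRDD mmol) onto 1–100.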

[1] = TherapeuticCategory: antipsychotic
[2] = TherapeuticCategory: antidepressant
[3] = TherapeuticCategory: antibacterial

SMILES: O=C(O)[C@H](O)[C@@H](O)C(=O)O
- maximum recommended daily dose (mmol/kg-bw/day) (TherapeuticCategory: none): 0.2

SMILES: O[C@H]([C@H](O)[C@@H](O)CBr)[C@H](O)CBr
- maximum recommended daily dose (mmol/kg-bw/day) (TherapeuticCategory: antineoplastic): 0.0158

SMILES: O=c1c(CO)c/c(=N/Nc2ccc(S(=O)(=O)O)c3ccccc23)c(=O)/c1=N/Nc1ccc(S(=O)(=O)O)c2ccccc12
- maximum recommended daily dose (mmol/kg-bw/day) (TherapeuticCategory: food additive): 0.0023

SMILES: CN1CCN(C2=Nc3cc(Cl)ccc3Nc3ccccc32)CC1
- maximum recommended daily dose (mmol/kg-bw/day) [1]: 0.0459

SMILES: N[C@@H]1C[C@H]1c1ccccc1
- maximum recommended daily dose (mmol/kg-bw/day) [2]: 0.00751

SMILES: N[C@@H](CCC(=O)N[C@@H](CS)C(=O)NCC(=O)O)C(=O)O
- maximum recommended daily dose (mmol/kg-bw/day) (TherapeuticCategory: none): 0.0163

SMILES: CCCCN1CCCCC1C(=O)Nc1c(C)cccc1C (stereo unspecified)
- maximum recommended daily dose (mmol/kg-bw/day) (TherapeuticCategory: local anesthetic): 0.013

SMILES: CC(=O)O[C@]1(C(C)=O)CC[C@H]2[C@@H]3C=C(Cl)C4=CC(=O)[C@@H]5C[C@@H]5[C@]4(C)[C@H]3CC[C@@]21C
- maximum recommended daily dose (mmol/kg-bw/day) (TherapeuticCategory: antiandrogen): 0.012

SMILES: NC[C@H]1O[C@H](O[C@H]2[C@H](O)[C@@H](O)[C@H](N)C[C@@H]2N)[C@H](N)[C@@H](O)[C@@H]1O
- maximum recommended daily dose (mmol/kg-bw/day) [3]: 0.31

SMILES: CCC(C)C(C)(COC(N)=O)COC(N)=O (stereo unspecified)
- maximum recommended daily dose (mmol/kg-bw/day) (TherapeuticCategory: antihypertensive): 0.0861

SMILES: NC1=NC(=O)C(c2ccccc2)O1 (stereo unspecified)
- maximum recommended daily dose (mmol/kg-bw/day) (TherapeuticCategory: CNS stimulant): 0.0107

SMILES: CCCC[N+]1(C)[C@@H]2CC(OC(=O)[C@H](CO)c3ccccc3)C[C@H]1[C@@H]1O[C@@H]12 (stereo partly specified)
- maximum recommended daily dose (mmol/kg-bw/day) (TherapeuticCategory: antispasmotic): 0.00302

SMILES: CC(C(=O)O)c1ccc2c(c1)Cc1cccnc1O2 (stereo unspecified)
- maximum recommended daily dose (mmol/kg-bw/day) (TherapeuticCategory: anti inflammatory): 0.0147

SMILES: C/C=C\C1=C(C(=O)O)N2C(=O)[C@@H](NC(=O)[C@H](N)c3ccc(O)cc3)[C@H]2SC1
- maximum recommended daily dose (mmol/kg-bw/day) [3]: 0.0429

SMILES: CCC(=O)Oc1ccc2c(c1)CC[C@@H]1[C@@H]2CC[C@]2(C)[C@@H](OC(=O)CC)CC[C@@H]12
- maximum recommended daily dose (mmol/kg-bw/day) (TherapeuticCategory: estrogen): 0.0013

SMILES: C[C@H]1C[C@H]2[C@@H]3CCC4=CC(=O)C=C[C@]4(C)[C@@]3(F)[C@@H](O)C[C@]2(C)[C@@]1(OC(=O)c1ccccc1)C(=O)CO
- maximum recommended daily dose (mmol/kg-bw/day) (TherapeuticCategory: glucocorticoid): 0.000302

SMILES: C=CCC1(C(C)C#CCC)C(=O)NC(=O)N(C)C1=O (stereo unspecified)
- maximum recommended daily dose (mmol/kg-bw/day) (TherapeuticCategory: anesthetic): 0.00762

SMILES: CC(C)(C)NCC(O)c1ccc(O)c(CO)c1 (stereo unspecified)
- maximum recommended daily dose (mmol/kg-bw/day) (TherapeuticCategory: bronchodilator, tocolytic): 0.00223

SMILES: C[C@H](CCC(=O)O)[C@H]1CC[C@H]2[C@@H]3[C@@H](O)C[C@@H]4C[C@H](O)CC[C@]4(C)[C@H]3CC[C@]12C
- maximum recommended daily dose (mmol/kg-bw/day) (TherapeuticCategory: anticholelithogenic): 0.0255

SMILES: CC1(C)S[C@@H]2[C@H](NC(=O)[C@H](N)c3ccc(O)cc3)C(=O)N2[C@H]1C(=O)O
- maximum recommended daily dose (mmol/kg-bw/day) [3]: 0.0596

SMILES: CN1CC[C@]23c4c5ccc(O)c4O[C@H]2C(=O)CC[C@H]3[C@H]1C5
- maximum recommended daily dose (mmol/kg-bw/day) (TherapeuticCategory: analgesic): 0.0014

SMILES: CN1CCC(=C2c3ccccc3CC(=O)c3sccc32)CC1
- maximum recommended daily dose (mmol/kg-bw/day) (TherapeuticCategory: antiasthmatic): 0.000108

SMILES: Oc1ccc(Cl)cc1Cc1cc(Cl)ccc1O
- maximum recommended daily dose (mmol/kg-bw/day) (TherapeuticCategory: anthelmintic): 0.372

SMILES: CC(C)(O)CC(C)(O)c1ccc(Cl)cc1 (stereo unspecified)
- maximum recommended daily dose (mmol/kg-bw/day) [2]: 0.0437

SMILES: CCC(=O)c1ccc(O)cc1
- maximum recommended daily dose (mmol/kg-bw/day) (TherapeuticCategory: pituitary gonadotrophic hormone inhibitor): 0.333

SMILES: Cc1cc2c(s1)Nc1ccccc1N=C2N1CCN(C)CC1
- maximum recommended daily dose (mmol/kg-bw/day) [1]: 0.0008

SMILES: O=P(O)(O)C(O)(Cc1cccnc1)P(=O)(O)O
- maximum recommended daily dose (mmol/kg-bw/day) (TherapeuticCategory: antiosteoporotic, Ca regulator, Ca channel blocker): 0.000294

SMILES: CN(C)CCn1nnnc1SCC1=C(C(=O)O)N2C(=O)[C@@H](NC(=O)Cc3csc(N)n3)[C@H]2SC1
- maximum recommended daily dose (mmol/kg-bw/day) [3]: 0.19

SMILES: Cc1onc(-c2c(F)cccc2Cl)c1C(=O)N[C@@H]1C(=O)N2[C@@H]1SC(C)(C)[C@@H]2C(=O)O
- maximum recommended daily dose (mmol/kg-bw/day) [3]: 0.147

SMILES: O=C(Cc1cccs1)N[C@@H]1C(=O)N2C(C(=O)[O-])=C(C[n+]3ccccc3)CS[C@H]12
- maximum recommended daily dose (mmol/kg-bw/day) [3]: 0.161

SMILES: CCN(CC)CCNc1ccc(CO)c2sc3ccccc3c(=O)c12
- maximum recommended daily dose (mmol/kg-bw/day) (TherapeuticCategory: antihelmintic): 0.0281
